The values that follow come from the METLIN SMRT retention time set (Domingo-Almenara et al. 2019).

SMILES strings stand for the structures.

This data set is described as follows: gradient 5% acetonitrile 3 min, to 50% in 2 min, to 85% in 15 min, held 3 min, 100 µL/min. Particulars: column: Zorbax Extend-C18 2.1 x 50 mm; eluents: water / acetonitrile, 0.1% formic acid. In outline:
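Data were gathered over 3 months by HPLC coupled to a quadrupole time-of-flight mass spectrometer, operated in positive and negative ionization mode. Mixtures of ~100 pure standards ran on a Zorbax Extend-C18 column (2.1 × 50 mm, 1.8 μm) at 100 μL/min, with water and acetonitrile each containing 0.1% formic acid and dead and dwell volumes of 40 μL and 900 μL. Retention time was read from adduct peaks picked by computer and checked manually.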
`COc1ccc(Cl)c2c(=O)c3c([nH]c12)CCN(CC(=O)Nc1cc(F)ccc1F)C3` yielded an RP-LC retention time of 625 s.

Compound `COCCNC(=O)c1ccc2c(c1)CCCN2C(=O)c1ccc(Cl)cc1` displayed an RP-LC retention time of 752 s.

`Cc1c(Cl)cccc1NC(=O)C1CCN(c2c(C(=O)N3CCC(C)CC3)cnc3snc(C)c23)CC1` displayed an RP-LC retention time of 1040 s.

Take `COc1cccc(N2CCN(c3ccnc(SCC(=O)Nc4cc(Cl)ccc4OC)n3)CC2)c1`: the RP-LC retention time is 964 s.

The compound `O=C(Cn1cccc1-c1nnc(C2CC2)o1)Nc1ccc(Cl)cc1F` showed an RP-LC retention time of 908 s.

In turn, `COc1cccc(CC(=O)N2CCC3(CC2)N=C(c2ccccc2)NO3)c1` had an RP-LC retention time of 802 s.

`O=C(NC1CCN(Cc2ccccc2)CC1)c1cc2c(=O)n(Cc3ccccc3)ccc2s1` showed an RP-LC retention time of 688 s.

Compound `CCCn1cc(C(=O)Nc2ccc3c(c2)OCCO3)c(=O)c2ccc(C)nc21` returned an RP-LC retention time of 1070 s.

With `CCOC(=O)c1cc(S(=O)(=O)N2CCCC2C(=O)NC2CCC(C)CC2)cn1C` (stereo not drawn), the RP-LC retention time is 966 s.

Compound `CC(=O)Nc1ccc(S(=O)(=O)NCC2(c3cccs3)CCOCC2)c(C)c1` gave an RP-LC retention time of 696 s.

In turn, `CCc1ccc(C2=C(C)C(N3CCCN(C(=O)NCCC(C)C)CC3)=NS2(=O)=O)cc1` yielded an RP-LC retention time of 926 s.

`COc1ccc(NC(=O)Cn2c(N3CCOCC3)nc(C)cc2=O)cc1Cl` registered an RP-LC retention time of 1120 s.

As to `Cc1csc(-c2cc(S(=O)(=O)NC3CCCCC3)cn2CC(=O)N2CCCCC2)n1`, the RP-LC retention time worked out at 1010 s.

For `CN(C(=O)CCCOc1ccc2[nH]c(=O)ccc2c1)C1CCCCC1`, the RP-LC retention time was 840 s.

As to `CSc1ccc(-c2nc3cnccn3c2Nc2cccc(C(=O)O)c2)cc1`, the RP-LC retention time amounted to 744 s.

With `COc1ccc(CCC(=O)N2CCC(c3cc(N)on3)CC2)cc1`, the RP-LC retention time is 681 s.

In turn, `CC1Oc2ccccc2N(Cc2nc(-c3ccc(Cl)c(F)c3)no2)C1=O` (stereo not drawn) displayed an RP-LC retention time of 1190 s.

The compound `COc1ccc(-c2nc3ccccn3c2Nc2ccc(C)cc2)cc1` returned an RP-LC retention time of 701 s.

Consider `CNC(=O)c1cc2cc(Br)ccc2[nH]1`, for which the RP-LC retention time was determined as 771 s.

`CC(C)(N)c1ncc(-c2ccc(OC(F)(F)F)cc2)[nH]1` displayed an RP-LC retention time of 693 s.

Consider `CNC(=O)c1cc2c(=O)n(CC(C)C)c3ccccc3n2n1`, for which the RP-LC retention time was 793 s.

In turn, `Cc1ccc(-n2cccc2CC(=O)NCc2ccc(N3CCOCC3)cc2)cc1` gave an RP-LC retention time of 877 s.

In turn, `Cc1noc(-c2cc(=O)n(CC(=O)Nc3cccc(C)c3C)c3ccccc23)n1` registered an RP-LC retention time of 890 s.

For the compound `CCc1nc(-c2csc(S(=O)(=O)N3CCC(C(=O)N4CCC5(CC4)OCCO5)CC3)c2)no1`, the RP-LC retention time came out at 816 s.

On to `CN(C)C[C@@H]1CN(c2ccccn2)C[C@H]1NC(=O)c1ccc2ccccc2n1`, for which the RP-LC retention time was 567 s.

`COc1ccc(NC(=O)C(C)C2CCN(C(=O)Nc3ccccc3)CC2)cc1Cl` (stereo not drawn) returned an RP-LC retention time of 850 s.

The compound `Cc1c2cnn(-c3ccccc3)c(=O)c2c(C)n1CCCC(=O)NCC1CCCO1` (stereo not drawn) yielded an RP-LC retention time of 687 s.

For `CCN1CCN(C(=O)CN2C(=O)C3CCCCN3c3ccc(S(=O)(=O)N(C)C)cc32)CC1` (stereo not drawn), the RP-LC retention time was 620 s.

On to `CCCNC(=O)Cn1nc2cc(-c3ccccc3)nc(C)n2c1=O`, for which the RP-LC retention time was found to be 766 s.

For `Clc1ccccc1CSc1nnc(-c2ccc(Br)cc2)o1`, the RP-LC retention time worked out at 1400 s.

For the compound `Cc1nc(-c2cccc(C(=O)N3CCCc4ccccc43)c2)no1`, the RP-LC retention time was found to be 900 s.

On to `O=C(c1[nH]nc2c1COc1ccccc1-2)N1CC(c2noc(COc3ccc(F)cc3)n2)C1`, for which the RP-LC retention time was 943 s.

Turning to `CC(C)n1cnc2cc(CNC(=O)c3c(F)cccc3F)ccc21`, the RP-LC retention time was found to be 612 s.

`COCCN1C(=O)c2ccccc2C(C(=O)NCCc2ccccc2)C12CCCC2` (stereo not drawn) displayed an RP-LC retention time of 827 s.

The compound `CC(C)c1ccc(OCC(=O)Nc2nnc(C3CC(=O)N(c4ccccc4)C3)o2)cc1` (stereo not drawn) came in with an RP-LC retention time of 728 s.

Turning to `O=c1c2cc(-c3ccc(Br)cc3)nn2cnn1Cc1nc(-c2ccccc2)no1`, the RP-LC retention time came to 1190 s.

`COC(=O)C1=CN(c2cc(F)ccc2C)c2ccc(F)cc2S1(=O)=O` returned an RP-LC retention time of 898 s.

Consider `COc1ccc(CNS(=O)(=O)c2ccc3c(c2)CCCC(=O)N3)cc1`, for which the RP-LC retention time was 699 s.

Compound `Cc1c(Cl)cccc1S(=O)(=O)NCC(O)c1ccc(C(F)(F)F)cc1` (stereo not drawn) showed an RP-LC retention time of 938 s.

Regarding `CCOC(=O)c1c(S(=O)(=O)N2CCC(C(=O)NC3CC3)CC2)c(C)n(C)c1C`, the RP-LC retention time was found to be 672 s.

Turning to `Cc1ccc(-c2ncc(C(=O)NC(C)c3ccccn3)c(-c3ccncc3)n2)cc1` (stereo not drawn), the RP-LC retention time came out at 685 s.

Turning to `COCC1(O)CCOC2(CCN(Cc3cccc(Cl)c3F)CC2)C1` (stereo not drawn), the RP-LC retention time came to 560 s.

`CCc1cc(=O)n(CC(=O)NCc2ccc(F)cc2F)c(N2CCOCC2)n1` yielded an RP-LC retention time of 720 s.

In the case of `COc1ccc(OC)c(CNC(=O)C2CCN(c3ccc4nncn4n3)CC2)c1`, the RP-LC retention time is 680 s.

Regarding `CCOC(=O)c1cn[nH]c1S(=O)(=O)N1CCC(C(N)=O)CC1`, the RP-LC retention time was found to be 585 s.

As to `Oc1ccc2c3c1O[C@H]1c4oc5ccccc5c4C[C@@]4(O)[C@@H](C2)N(CC2CC2)CC[C@]314`, the RP-LC retention time was determined as 673 s.

On to `O=S(=O)(NCCc1noc(-c2ccccc2)n1)c1cccs1`, for which the RP-LC retention time turned out to be 849 s.

For the compound `Cc1cc(C)cc(NC(=O)Cn2nc(N3CCOCC3)c3ccccc3c2=O)c1`, the RP-LC retention time was found to be 840 s.

Regarding `CCCCNC(=O)C1CCCN(c2nnc(C)c3c(C)n(-c4ccc(Cl)cc4)nc23)C1` (stereo not drawn), the RP-LC retention time is 746 s.

In turn, `O=C(CN1CCC2(CC1)N=C(c1ccc(Cl)cc1)C(=O)N2)Nc1ccc2c(c1)OCCO2` registered an RP-LC retention time of 670 s.

Regarding `O=C1CC(c2ccc3c(c2)OCO3)c2scc(S(=O)(=O)c3ccccc3)c2N1` (stereo not drawn), the RP-LC retention time amounted to 905 s.

The compound `COc1cc(NC(=O)NCCc2c(C)nn(C)c2C)cc(OC)c1OC` came in with an RP-LC retention time of 610 s.

In turn, `CC(C)c1ccc(-c2csc(Nc3ccc(S(N)(=O)=O)cc3)n2)cc1` yielded an RP-LC retention time of 1010 s.

With `CCOc1ccc(-n2nc(CO)c(C(=O)NC3CCCC3)n2)cc1`, the RP-LC retention time was found to be 1020 s.

`Cc1ccc(C)c(NC(=O)N2C[C@H](c3nc(-c4ccncc4)no3)[C@@H](C)C2)c1` showed an RP-LC retention time of 830 s.

Regarding `Cc1cc2[nH]c(C(=O)Nc3cc(F)c(F)c(F)c3)c(CN3CCOCC3)c2s1`, the RP-LC retention time worked out at 737 s.

The compound `Cc1cccc(Nc2c(-c3ccc(N4CCOCC4)cc3)nc3ncccn23)c1` yielded an RP-LC retention time of 717 s.

`CCC(C(=O)N1CCN(c2ccccn2)CC1)n1c2ccccc2c2cnn(C)c(=O)c21` (stereo not drawn) had an RP-LC retention time of 638 s.

In turn, `CCc1cc(C(=O)NCc2ccc(C)o2)nc2cc(-c3ccco3)nn12` had an RP-LC retention time of 767 s.

Regarding `CCS(=O)(=O)Nc1ccc2nc(N3CCN(c4cccc(C)c4C)CC3)cc(C(=O)O)c2c1`, the RP-LC retention time came to 743 s.

`CC1CCc2ccccc2N1C(=O)c1cccs1` (stereo not drawn) had an RP-LC retention time of 913 s.

As for `CCc1ccc(S(=O)(=O)N2CC(c3nc(-c4ccccc4)nn3C)C2)cc1`, the RP-LC retention time turned out to be 1030 s.

In the case of `Cc1cccc(N2CCN(C(=O)CCC(=O)N3CCCn4nc(-c5cccn5C)cc43)CC2)c1C`, the RP-LC retention time came to 968 s.

As to `Cc1ccc(CNC(=O)Cn2ncn3c(C)c(C(=O)NCc4ccc(C)cc4)c(C)c3c2=O)cc1`, the RP-LC retention time stood at 851 s.

As for `COc1ccc2[nH]c3c(c2c1)CCN1C(=O)N(c2cccc(Cl)c2)C(=O)C31C` (stereo not drawn), the RP-LC retention time was 1030 s.

`NS(=O)(=O)c1ccc(CNC(=O)C2CCN(C(=O)NCc3cccs3)CC2)cc1` returned an RP-LC retention time of 612 s.

Take `Cc1csc(-c2cc(S(=O)(=O)NC3CCCCC3)cn2CC(=O)N2CCCC2)n1`: the RP-LC retention time was 927 s.

Turning to `Cc1ccc(CNC(=O)c2ccc(CN3CCN(C(C)C)C(=O)C3=O)cc2)cc1C`, the RP-LC retention time worked out at 763 s.

In turn, `CC(=O)c1cccc(NC(=O)c2nc3nc(C)cc(C(F)F)n3n2)c1` returned an RP-LC retention time of 734 s.

`O=C(CN1C(=O)CCSc2ccccc21)Nc1ccc2c(c1)OCO2` had an RP-LC retention time of 627 s.

Consider `CCCCN(C)CCNC(=O)c1cc2cc3ccc(OC)cc3nc2o1`, for which the RP-LC retention time came out at 641 s.

In the case of `CCCN1C(=O)COc2ccc(-c3noc(-c4ccc(OC)c(OC)c4)n3)cc21`, the RP-LC retention time is 1110 s.

The compound `Cc1ccc(C)c(CNC(=O)c2nc3cccnc3n(CC(C)C)c2=O)c1` came in with an RP-LC retention time of 1060 s.

In the case of `Cn1nnnc1SCC(=O)NCCn1nc(-c2ccco2)ccc1=O`, the RP-LC retention time was determined as 592 s.

`CCOC(=O)C(NC(C)=O)(C(=O)OCC)C(C)c1c[nH]c2ccccc12` (stereo not drawn): the RP-LC retention time came to 847 s.

Turning to `COc1ccc(-c2nn3c(N4CCN(c5ccccn5)CC4)cc(C)nc3c2C)cc1OC`, the RP-LC retention time turned out to be 606 s.

With `Cc1nc(-c2cn(C)c3ncccc23)sc1C(=O)Nc1ccc(F)c(F)c1`, the RP-LC retention time came to 940 s.

Take `O=C(Cc1ccsc1)N1CCC(c2noc(C3CC3)n2)C1` (stereo not drawn): the RP-LC retention time turned out to be 734 s.
